Source: ChEMBL document CHEMBL4196010, “New hydrazides derivatives of isoniazid against Mycobacterium tuberculosis: Higher potency and lower hepatocytotoxicity” (Eur J Med Chem, 2018)
Converted amounts (≈) assume the structure as drawn.

Experiments:
[1] = tested on: Mycobacterium tuberculosis; experiment: Antitubercular activity against Mycobacterium tuberculosis H37Rv ATCC 27294 after 5 days by microplate alamar blue assay; assay type: functional; conditions: H37Rv ATCC 27294, 120 h
[2] = tested on: Salmonella typhimurium; experiment: Genotoxicity in Salmonella typhimurium TA100 assessed as increase in revertant colonies at 0.5 uM preincubated for 20 mins followed by addition of top agar and minimal agar and measured after 72 hrs in absence of S9 metabolic activation system by Ames test relative to control; assay type: toxicity, organism-based; conditions: salmonella enterica subsp. enterica serovar typhimurium
[3] = Cytotoxicity against human HepG2 cells after 3 hrs by WST-1 assay; assay type: cell-based; conditions: read-out: LC50
[4] = tested on: Salmonella typhimurium; experiment: Genotoxicity in Salmonella typhimurium TA100 assessed as increase in revertant colonies at 5 uM preincubated for 20 mins followed by addition of top agar and minimal agar and measured after 72 hrs in absence of S9 metabolic activation system by Ames test relative to control; assay type: toxicity, organism-based; conditions: salmonella enterica subsp. enterica serovar typhimurium
[5] = tested on: Salmonella typhimurium; experiment: Genotoxicity in Salmonella typhimurium TA98 assessed as increase in revertant colonies at 5000 uM preincubated for 20 mins followed by addition of top agar and minimal agar and measured after 72 hrs in absence of S9 metabolic activation system by Ames test relative to control; assay type: toxicity, organism-based; conditions: salmonella enterica subsp. enterica serovar typhimurium
[6] = tested on: J774.A1; experiment: Cytotoxicity against mouse J774A.1 cells assessed as decrease in cell viability at 100 nM after 20 hrs by resazurin dye-based fluorimetric method; conditions: j774.a1, 20 h, 0.1 µM
[7] = tested on: Salmonella typhimurium; experiment: Genotoxicity in Salmonella typhimurium TA98 assessed as increase in revertant colonies at 0.5 uM preincubated for 20 mins followed by addition of top agar and minimal agar and measured after 72 hrs in absence of S9 metabolic activation system by Ames test relative to control; assay type: toxicity, organism-based; conditions: salmonella enterica subsp. enterica serovar typhimurium
[8] = tested on: J774.A1; experiment: Cytotoxicity against mouse J774A.1 cells assessed as decrease in cell viability at 1 uM after 20 hrs by resazurin dye-based fluorimetric method; conditions: j774.a1, 20 h
[9] = tested on: Mycobacterium tuberculosis; experiment: Potency index, ratio of pyrazinamide MIC to compound MIC for antitubercular activity against Mycobacterium tuberculosis H37Rv ATCC 27294; assay type: functional
[10] = tested on: Mycobacterium tuberculosis; experiment: Potency index, ratio of ethambutol MIC to compound MIC for antitubercular activity against Mycobacterium tuberculosis H37Rv ATCC 27294; assay type: functional
[11] = tested on: Salmonella typhimurium; experiment: Genotoxicity in Salmonella typhimurium TA98 assessed as increase in revertant colonies at 500 uM preincubated for 20 mins followed by addition of top agar and minimal agar and measured after 72 hrs in absence of S9 metabolic activation system by Ames test relative to control; assay type: toxicity, organism-based; conditions: salmonella enterica subsp. enterica serovar typhimurium
[12] = tested on: J774.A1; experiment: Cytotoxicity against mouse J774A.1 cells assessed as decrease in cell viability at 10 uM after 20 hrs by resazurin dye-based fluorimetric method; conditions: j774.a1, 20 h
[13] = tested on: Salmonella typhimurium; experiment: Genotoxicity in Salmonella typhimurium TA100 assessed as increase in revertant colonies at 500 uM preincubated for 20 mins followed by addition of top agar and minimal agar and measured after 72 hrs in absence of S9 metabolic activation system by Ames test relative to control; assay type: toxicity, organism-based; conditions: salmonella enterica subsp. enterica serovar typhimurium
[14] = tested on: Salmonella typhimurium; experiment: Genotoxicity in Salmonella typhimurium TA100 assessed as increase in revertant colonies at 50 uM preincubated for 20 mins followed by addition of top agar and minimal agar and measured after 72 hrs in absence of S9 metabolic activation system by Ames test relative to control; assay type: toxicity, organism-based; conditions: salmonella enterica subsp. enterica serovar typhimurium
[15] = tested on: Salmonella typhimurium; experiment: Genotoxicity in Salmonella typhimurium TA100 assessed as increase in revertant colonies at 5000 uM preincubated for 20 mins followed by addition of top agar and minimal agar and measured after 72 hrs in presence of S9 metabolic activation system by Ames test relative to control; assay type: toxicity, organism-based; conditions: salmonella enterica subsp. enterica serovar typhimurium
[16] = tested on: Salmonella typhimurium; experiment: Genotoxicity in Salmonella typhimurium TA98 assessed as increase in revertant colonies at 5 uM preincubated for 20 mins followed by addition of top agar and minimal agar and measured after 72 hrs in presence of S9 metabolic activation system by Ames test relative to control; assay type: toxicity, organism-based; conditions: salmonella enterica subsp. enterica serovar typhimurium
[17] = tested on: Salmonella typhimurium; experiment: Genotoxicity in Salmonella typhimurium TA98 assessed as increase in revertant colonies at 5 uM preincubated for 20 mins followed by addition of top agar and minimal agar and measured after 72 hrs in absence of S9 metabolic activation system by Ames test relative to control; assay type: toxicity, organism-based; conditions: salmonella enterica subsp. enterica serovar typhimurium
[18] = tested on: Salmonella typhimurium; experiment: Genotoxicity in Salmonella typhimurium TA98 assessed as increase in revertant colonies at 50 uM preincubated for 20 mins followed by addition of top agar and minimal agar and measured after 72 hrs in absence of S9 metabolic activation system by Ames test relative to control; assay type: toxicity, organism-based; conditions: salmonella enterica subsp. enterica serovar typhimurium
[19] = tested on: J774.A1; experiment: Cytotoxicity against mouse J774A.1 cells assessed as decrease in cell viability at 10 nM after 20 hrs by resazurin dye-based fluorimetric method; conditions: j774.a1, 20 h, 0.01 µM
[20] = tested on: J774.A1; experiment: Cytotoxicity against mouse J774A.1 cells assessed as decrease in cell viability at 100 uM after 20 hrs by resazurin dye-based fluorimetric method; conditions: j774.a1, 20 h
[21] = Selectivity index, ratio of LC50 for human HepG2 cells to MIC for Mycobacterium tuberculosis H37Rv ATCC 27294; assay type: toxicity; conditions: read-out: Selectivity Index
[22] = tested on: Salmonella typhimurium; experiment: Genotoxicity in Salmonella typhimurium TA98 assessed as increase in revertant colonies at 500 uM preincubated for 20 mins followed by addition of top agar and minimal agar and measured after 72 hrs in presence of S9 metabolic activation system by Ames test relative to control; assay type: toxicity, organism-based; conditions: salmonella enterica subsp. enterica serovar typhimurium
[23] = Cytotoxicity against human HepG2 cells after 24 hrs by WST-1 assay; assay type: cell-based; conditions: read-out: LC50
[24] = tested on: Salmonella typhimurium; experiment: Genotoxicity in Salmonella typhimurium TA100 assessed as increase in revertant colonies at 5 uM preincubated for 20 mins followed by addition of top agar and minimal agar and measured after 72 hrs in presence of S9 metabolic activation system by Ames test relative to control; assay type: toxicity, organism-based; conditions: salmonella enterica subsp. enterica serovar typhimurium
[25] = tested on: Salmonella typhimurium; experiment: Genotoxicity in Salmonella typhimurium TA100 assessed as increase in revertant colonies at 50 uM preincubated for 20 mins followed by addition of top agar and minimal agar and measured after 72 hrs in presence of S9 metabolic activation system by Ames test relative to control; assay type: toxicity, organism-based; conditions: salmonella enterica subsp. enterica serovar typhimurium
[26] = tested on: J774.A1; experiment: Cytotoxicity against mouse J774A.1 cells assessed as decrease in cell viability at 1 nM after 20 hrs by resazurin dye-based fluorimetric method; conditions: j774.a1, 20 h, 0.001 µM
[27] = tested on: Salmonella typhimurium; experiment: Genotoxicity in Salmonella typhimurium TA98 assessed as increase in revertant colonies at 0.5 uM preincubated for 20 mins followed by addition of top agar and minimal agar and measured after 72 hrs in presence of S9 metabolic activation system by Ames test relative to control; assay type: toxicity, organism-based; conditions: salmonella enterica subsp. enterica serovar typhimurium
[28] = tested on: Salmonella typhimurium; experiment: Genotoxicity in Salmonella typhimurium TA100 assessed as increase in revertant colonies at 5000 uM preincubated for 20 mins followed by addition of top agar and minimal agar and measured after 72 hrs in absence of S9 metabolic activation system by Ames test relative to control; assay type: toxicity, organism-based; conditions: salmonella enterica subsp. enterica serovar typhimurium
[29] = tested on: Salmonella typhimurium; experiment: Genotoxicity in Salmonella typhimurium TA98 assessed as increase in revertant colonies at 5000 uM preincubated for 20 mins followed by addition of top agar and minimal agar and measured after 72 hrs in presence of S9 metabolic activation system by Ames test relative to control; assay type: toxicity, organism-based; conditions: salmonella enterica subsp. enterica serovar typhimurium
[30] = tested on: Salmonella typhimurium; experiment: Genotoxicity in Salmonella typhimurium TA98 assessed as increase in revertant colonies at 50 uM preincubated for 20 mins followed by addition of top agar and minimal agar and measured after 72 hrs in presence of S9 metabolic activation system by Ames test relative to control; assay type: toxicity, organism-based; conditions: salmonella enterica subsp. enterica serovar typhimurium
[31] = tested on: Salmonella typhimurium; experiment: Genotoxicity in Salmonella typhimurium TA100 assessed as increase in revertant colonies at 0.5 uM preincubated for 20 mins followed by addition of top agar and minimal agar and measured after 72 hrs in presence of S9 metabolic activation system by Ames test relative to control; assay type: toxicity, organism-based; conditions: salmonella enterica subsp. enterica serovar typhimurium
[32] = tested on: Salmonella typhimurium; experiment: Genotoxicity in Salmonella typhimurium TA100 assessed as increase in revertant colonies at 500 uM preincubated for 20 mins followed by addition of top agar and minimal agar and measured after 72 hrs in presence of S9 metabolic activation system by Ames test relative to control; assay type: toxicity, organism-based; conditions: salmonella enterica subsp. enterica serovar typhimurium

SMILES: CC(=O)NNC(=O)c1ccncc1
- MIC [1]: > 559 µM

SMILES: CC(=O)Nc1ccc(Cl)cc1C(F)(F)C(=O)NNC(=O)c1ccncc1
- MIC [1]: 16.4 µM (≈ 6.27 µg/mL)

SMILES: CC(=O)Nc1ccc(C)cc1C(F)(F)C(=O)NN
- MIC [1]: > 412 µM

SMILES: CC(=O)Nc1ccc(C)cc1C(F)(F)C(=O)NNc1ccccc1
- MIC [1]: > 300 µM

SMILES: CC(=O)Nc1ccccc1C(=O)C(=O)NNC(=O)c1ccncc1
- fold change (FC) [2]: 1
- CC50 at 3 h [3]: > 200 µM
- fold change (FC) [4]: 1.3
- fold change (FC) [5]: 1.3
- Activity [6]: 97.7%
- fold change (FC) [7]: 1
- Activity [8]: 99.5%
- Ratio [9]: 1800
- Ratio [10]: 30
- fold change (FC) [11]: 1.3
- MIC [1]: 0.47 µM (≈ 0.153 µg/mL)
- Activity [12]: 97.1%
- fold change (FC) [13]: 1.3
- fold change (FC) [14]: 1.3
- fold change (FC) [15]: 1.3
- fold change (FC) [16]: 1.1
- fold change (FC) [17]: 1.1
- fold change (FC) [18]: 1.2
- Activity [19]: 98.7%
- Activity [20]: 93.3%
- selectivity ratio [21]: 67
- fold change (FC) [22]: 2
- CC50 at 24 h [23]: 31.5 µM
- fold change (FC) [24]: 1.1
- fold change (FC) [25]: 1.2
- Activity [26]: 99.6%
- fold change (FC) [27]: 1.1
- fold change (FC) [28]: 1.4
- fold change (FC) [29]: 2.5
- fold change (FC) [30]: 1.6
- fold change (FC) [31]: 1.1
- fold change (FC) [32]: 1.2

SMILES: CC(=O)Nc1ccccc1C(F)(F)C(=O)NNC(=O)c1ccncc1
- MIC [1]: 3.59 µM (≈ 1.25 µg/mL)

SMILES: CC(=O)Nc1ccc(F)cc1C(F)(F)C(=O)NNC(=O)c1ccncc1
- MIC [1]: 17.1 µM (≈ 6.26 µg/mL)

SMILES: CC(=O)Nc1ccccc1C(F)(F)C(=O)NNC(=N)N
- MIC [1]: > 351 µM

SMILES: O=C(CCl)Nc1ccccc1C(=O)C(=O)NNC(=O)c1ccncc1
- CC50 at 3 h [3]: > 200 µM
- Activity [6]: 97.9%
- Activity [8]: 96.5%
- Ratio [9]: 1800
- Ratio [10]: 30
- MIC [1]: 0.43 µM (≈ 0.155 µg/mL)
- Activity [12]: 98.8%
- Activity [19]: 98.5%
- Activity [20]: 63.3%
- selectivity ratio [21]: 256
- CC50 at 24 h [23]: 110 µM
- Activity [26]: 99%

SMILES: CC(=O)Nc1ccccc1C(F)(F)C(=O)NNc1ccccn1
- MIC [1]: > 312 µM

SMILES: O=C(NNC(=O)c1ccncc1)C(=O)c1ccccc1NC(=O)c1ccccc1
- CC50 at 3 h [3]: > 200 µM
- Activity [6]: 99.8%
- Activity [8]: 98.2%
- MIC [1]: 8.04 µM (≈ 3.12 µg/mL)
- Activity [12]: 98%
- Activity [19]: 99.4%
- Activity [20]: 86.5%
- selectivity ratio [21]: > 25
- CC50 at 24 h [23]: > 200 µM
- Activity [26]: 100%
